One data set concerns HCT 116 (colon). As to the kind of experiment: Cytotoxicity on human cells, automated nuclei counting: HCT 116. The conditions noted are these: HCT 116 cells, exposed 24 h to 48 h, 0.1 to 25 μM. The data set is classed as cell-based. On the procedure:
(§1) Cytotoxicity: This method is based on an automated imaging analysis. 4.10^3 cells were cultivated on 96-well plates and left for 24 hours so as to bind, to spread and proliferate.
(§2) All the cell lines were cultivated in a DMEM or RPMI (Invitrogen) medium. All these media were completed with antibiotics (penicillin-streptomycin) (Lonza) and 10% by volume of fetal calf serum (Invitrogen). The cells were cultivated at 37° C. with 5% of CO2. The treatments with the molecules to be tested were carried out with increasing concentrations. The control experiments were also carried out by using suitable dilutions of DMSO (maximum 1% DMSO).

A further data set concerns MDA-MB 231 (breast). As to the kind of experiment: Cytotoxicity on human cells, automated nuclei counting: MDA-MB 231. To be noted: MDA-MB 231 cells, exposed 24 h to 48 h, 0.1 to 25 μM. Format: cell-based. On the procedure: as §1, §2
The next data set has as its system NCI (lung). As to the kind of experiment: Cytotoxicity on human cells, automated nuclei counting: NCI. Format: cell-based. To be noted: exposed 24 h to 48 h, 0.1 to 25 μM. On the procedure: as §1, §2
A further data set has as its system Caco (colon). As to the kind of experiment: Cytotoxicity on human cells, automated nuclei counting: Caco. The conditions noted are these: exposed 24 h to 48 h, 0.1 to 25 μM. The data set is classed as cell-based. The procedure:
as §1, §2

In another data set the test system is fibroblast. The data set is described as follows: Cytotoxicity on human cells, automated nuclei counting: fibroblast. Format: cell-based. To be noted: exposed 24 h to 48 h, 0.1 to 25 μM. On the procedure: as §1, §2
Another data set concerns the target T1, CDK5/D25 (Homo sapiens, UniProt Q00535).
T1 construct: made in house
The data set is described as follows: CDK5 kinase inhibition (33P-ATP, histone H1). Format: biochemical. The conditions noted are these: buffer C, 30° C., 15 μM ATP, read-out: IC50 μM Kinases CDK5. On the procedure:
The protein kinase inhibition activities of the compounds of the invention are tested according to the following general procedure:
Buffer C: 60 mM β-glycerophosphate, 15 mM p-nitrophenyl-phosphate, 25 mM Mops (pH 7.2), 5 mM EGTA, 15 mM mgCl2, 1 mM DTT, 1 mM sodium vanadate and 1 mM phenylphosphate.
The controls were made with suitable dilutions of DMSO.
ATP (3.000 Ci/mmol.; 10 mCi/mL) in a final volume of 30 μL. After 30 mins of incubation at 30° C., 25 μL of supernatant aliquots were deposited on phosphocellulose Whatman P81 paper pieces of 2.5×3 cm, and after 20 seconds, the filters were washed five times (for at least 5 minutes each time) in a solution of 10 mL of phosphoric acid/1 litre of water. The wet filters were counted in the presence of 1 mL of scintillation fluid ACS (Amersham).

The subject of a further data set is Huh7 (liver). The data set is described as follows: Cytotoxicity on human cells, automated nuclei counting: Huh7. The data set is classed as cell-based. To be noted: Huh-7, exposed 24 h to 48 h, 0.1 to 25 μM. On the procedure: as §1, §2
The subject of another data set is PC3 (prostate). As to the kind of experiment: Cytotoxicity on human cells, automated nuclei counting: PC3. The conditions noted are these: PC-3, exposed 24 h to 48 h, 0.1 to 25 μM. Format: cell-based. On the procedure: as §1, §2

T1 sequence (Q00535 whole entry): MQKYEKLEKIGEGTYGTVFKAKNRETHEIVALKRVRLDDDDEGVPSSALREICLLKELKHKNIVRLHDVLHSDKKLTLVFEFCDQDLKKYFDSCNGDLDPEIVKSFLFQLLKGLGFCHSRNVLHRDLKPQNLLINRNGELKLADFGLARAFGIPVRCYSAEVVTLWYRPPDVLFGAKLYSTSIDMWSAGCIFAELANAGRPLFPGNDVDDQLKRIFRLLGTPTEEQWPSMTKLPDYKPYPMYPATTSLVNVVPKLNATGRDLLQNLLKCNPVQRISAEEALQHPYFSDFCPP
T1 sequence (Q15078 99-307 partner limits assumed): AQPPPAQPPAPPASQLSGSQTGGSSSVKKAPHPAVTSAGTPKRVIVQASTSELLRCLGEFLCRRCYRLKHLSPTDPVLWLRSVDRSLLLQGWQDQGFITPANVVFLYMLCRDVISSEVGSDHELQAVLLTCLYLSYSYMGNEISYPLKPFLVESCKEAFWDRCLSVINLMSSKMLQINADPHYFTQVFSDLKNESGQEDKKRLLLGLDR

In turn, `O=C1c2cccc(NC(=S)Nc3ncccc3Br)c2C2CCCCN12` (stereo not drawn) [Compound 72, 1-(3-bromopyridin-2-yl)-3-(6-oxo-1,2,3,4,6,10b-hexahydropyrido[2,1-a]isoindol-10-yl)thiourea] came in with a melting point of 180 °C.

On to `O=C1c2cccc(-n3c(=O)[nH]c4cnccc4c3=O)c2C2CC3(CCN12)OCCO3` (stereo not drawn) [Compound 113, 3-(6′-oxo-3′,4′,6′,10b′-tetrahydro-1′H-spiro[[1,3]dioxolane-2,2′-pyrido[2,1-a]isoindole]-10′-yl)pyrido[3,4-d]pyrimidine-2,4(1H,3H)-dione], for which the melting point is 204 °C.

`Cc1cccnc1NC(=O)Nc1cccc2c1C1CC(O)CCN1C2=O` (stereo not drawn) [Compound 107, 1-(2-Hydroxy-6-oxo-1,2,3,4,6,10b-hexahydropyrido[2,1-a]isoindol-10-yl)-3-(3-methylpyridin-2-yl)urea]: the melting point was in the range of 204 to 206 °C. This compound also registered a 50% inhibitory concentration (IC50) in the data set with HCT 116 (colon) of 1.5 µM. For the same compound, the midpoint of inhibition in the data set on MDA-MB 231 (breast), the IC50, lay at 8 µM. In the data set on NCI (lung), this compound returned a concentration for half-maximal inhibition (IC50) of 7 µM. Further, half-maximal inhibition in the data set on Caco (colon) (IC50) required 12 µM. This compound had an IC50 in the data set with fibroblast of 6 µM. In addition, on CDK5/D25, the IC50 was found to be 0.63 µM. The same compound came in with an IC50 in the data set on Huh7 (liver) of 5 µM. This compound also had an IC50 in the data set with PC3 (prostate) of 5 µM.

`O=C(Nc1cnccn1)Nc1cccc2c1C1CCCCN1C2=O` (stereo not drawn) [Compound 38, 1-(6-Oxo-1,2,3,4,6,10b-hexahydropyrido[2,1-a]isoindol-10-yl)-3-(pyrazin-2-yl)urea]: the melting point amounted to 215 °C. The compound further had an IC50 in the data set on HCT 116 (colon) of 0.1 µM. The compound further yielded a half-inhibitory concentration (IC50) in the data set on MDA-MB 231 (breast) of 0.2 µM. 0.8 µM corresponded to half-maximal inhibition in the data set with NCI (lung) (IC50). The compound also returned an IC50 in the data set with Caco (colon) of 1 µM. The IC50 in the data set on fibroblast was found to be 0.8 µM. Further, the IC50 in the data set with Huh7 (liver) turned out to be 0.2 µM. In addition, the concentration for half-maximal inhibition (IC50) with PC3 (prostate) is 0.3 µM.

In turn, `O=C(Nc1ccccc1)Nc1cccc2c1C1CCCCN1C2=O` (stereo not drawn) [Compound 87, N-(6-Oxo-1,2,3,4,6,10b-hexahydropyrido[2,1-a]isoindol-10-yl)-N′-phenylurea] returned a melting point of 172 °C.

In turn, `O=C(Nc1cc[nH]n1)Nc1cccc2c1C1CC3(CCN1C2=O)SCCS3` (stereo not drawn) [Compound 77, 1-(6′-Oxo-3′,4′,6′,10b′-tetrahydro-1′H-spiro[[1,3]dithiolane-2,2′-pyrido[2,1-a]isoindole]-10′-yl)-3-(1H-pyrazol-3-yl)urea] displayed a melting point of 184 °C.

`Cc1cccnc1NC(=O)Nc1cccc2c1C1CC(=O)CCN1C2=O` (stereo not drawn) [Compound 100, 1-(2,6-dioxo-1,2,3,4,6,10b-hexahydropyrido[2,1-a]isoindol-10-yl)-3-(3-methylpyridin-2-yl)urea] registered a melting point of over 260 °C.

For `O=C(Nc1cnccn1)Nc1cccc2c1C1CC3(CCN1C2=O)OCCO3` (stereo not drawn) [Compound 29, 1-(6′-Oxo-3′,4′,6′,10b′-tetrahydro-1′H-spiro[[1,3]dioxolane-2,2′-pyrido[2,1-a]isoindole]-10′-yl)-3-(pyrazin-2-yl)urea], the IC50 with HCT 116 (colon) stood at 1.5 µM; in the data set on MDA-MB 231 (breast) it was 3 µM; with NCI (lung) it was 8 µM; in the data set with Caco (colon) it was 5 µM; in the data set on fibroblast, 10 µM; on CDK5/D25, 7.1 µM. Further, the 50% inhibitory concentration (IC50) stood at 3 µM in the data set with Huh7 (liver) and 5 µM in the data set on PC3 (prostate).

As for `COc1cc(NC(=O)Nc2cccc3c2C2CC(=O)CCN2C3=O)nc2ccccc12` (stereo not drawn) [Compound 102, 1-(2,6-dioxo-1,2,3,4,6,10b-hexahydropyrido[2,1-a]isoindol-10-yl)-3-(4-methoxyquinolin-2-yl)urea], the melting point lay in the range of 223 to 225 °C.

Compound `O=C(NCc1ccccc1)Nc1cccc2c1C1CCCCN1C2=O` (stereo not drawn) [Compound 92, N-Benzyl-N′-(6-oxo-1,2,3,4,6,10b-hexahydropyrido[2,1-a]isoindol-10-yl)urea] showed a melting point of 183 °C.

Take `O=C(Nc1ccccn1)Nc1cccc2c1C1CCCCN1C2=O` (stereo not drawn) [Compound 30, 1-(6-oxo-1,2,3,4,6,10b-hexahydropyrido[2,1-a]isoindol-10-yl)-3-(pyridin-2-yl)urea]: the IC50 stood at 0.05 µM in the data set on MDA-MB 231 (breast); 0.2 µM in the data set with NCI (lung); 0.1 µM in the data set on Caco (colon); 0.2 µM in the data set on fibroblast; 0.03 µM in the data set with Huh7 (liver); 0.1 µM with PC3 (prostate).

In turn, `O=C1CCN2C(=O)c3cccc(-n4c(=O)[nH]c5cnccc5c4=O)c3C2C1` (stereo not drawn) [Compound 99, 10-(2,4-dioxo-1,2-dihydropyrido[3,4-d]pyrimidin-3(4H)-yl)-1,3,4,10b-tetrahydropyrido[2,1-a]isoindole-2,6-dione] came in with a melting point of 230 °C.

In the case of `O=C1c2cccc(-n3c(=O)[nH]c4ncccc4c3=O)c2C2CCCCN12` (stereo not drawn) [Compound 117, 3-(6-Oxo-1,2,3,4,6,10b-hexahydro-pyrido[2,1-a]isoindol-10-yl)-1H-pyrido[2,3-d]pyrimidine-2,4-dione], the melting point was over 290 °C.

Turning to `Cc1cccc(NC(=O)Nc2cccc3c2C2CC(O)CCN2C3=O)n1` (stereo not drawn) [Compound 108, 1-(2-Hydroxy-6-oxo-1,2,3,4,6,10b-hexahydropyrido[2,1-a]isoindol-10-yl)-3-(6-methylpyridin-2-yl)urea], the melting point is 240 to 242 °C. For the same compound, inhibition in the data set on HCT 116 (colon) was half-maximal at 3 µM (IC50). The compound also displayed a 50% inhibitory concentration (IC50) with MDA-MB 231 (breast) of 8 µM. Besides, the IC50 in the data set on NCI (lung) is 10 µM. In addition, the half-maximal inhibitory concentration (IC50) with Caco (colon) is 15 µM. In the data set on fibroblast, this compound yielded an IC50 of 10 µM. In addition, the half-maximal inhibitory concentration (IC50) on CDK5/D25 is 1 µM. Inhibition with Huh7 (liver) was half-maximal at 3 µM (IC50). This compound also gave an IC50 in the data set with PC3 (prostate) of 2 µM.

Compound `O=C(Nc1cccc(Br)n1)Nc1cccc2c1C1CC3(CCN1C2=O)SCCS3` (stereo not drawn) [Compound 21, 1-(6-Bromopyridin-2-yl)-3-(6′-oxo-3′,4′,6′,10b′-tetrahydro-1′H-spiro[[1,3]dithiolane-2,2′-pyrido[2,1-a]isoindole]-10′-yl)urea] yielded a melting point of 170 °C. In the data set on HCT 116 (colon), this compound displayed an IC50 of 2.5 µM. For the same compound, the midpoint of inhibition in the data set on MDA-MB 231 (breast), the IC50, lay at 4 µM. In addition, the IC50 with NCI (lung) was 6 µM. Further, the IC50 with Caco (colon) turned out to be 3 µM. Moreover, inhibition in the data set with fibroblast was half-maximal at 9 µM (IC50). Further, at CDK5/D25, the IC50 is over 10 µM. The 50% inhibitory concentration (IC50) with Huh7 (liver) turned out to be 2 µM. This compound also showed a 50% inhibitory concentration (IC50) with PC3 (prostate) of 4 µM.

For the compound `O=C1CCN2C(=O)c3cccc(NC(=O)Nc4cnccn4)c3C2C1` (stereo not drawn) [Compound 98, 1-(2,6-Dioxo-1,2,3,4,6,10b-hexahydropyrido[2,1-a]isoindol-10-yl)-3-(pyrazin-2-yl)urea], the IC50 was 20 µM with HCT 116 (colon); over 25 µM in the data set on MDA-MB 231 (breast); over 25 µM in the data set on NCI (lung); 25 µM in the data set with Caco (colon); over 25 µM with fibroblast; over 10 µM on CDK5/D25. Also, the IC50 in the data set on Huh7 (liver) and in the data set on PC3 (prostate) was over 25 µM throughout.

Turning to `Cc1ccc(NC(=S)Nc2cccc3c2C2CCCCN2C3=O)nc1` (stereo not drawn) [Compound 73, 1-(5-methylpyridin-2-yl)-3-(6-oxo-1,2,3,4,6,10b-hexahydropyrido[2,1-a]isoindol-10-yl)thiourea], the melting point was 232 °C.

`Cc1cccc(NC(=O)Nc2cccc3c2C2CC(=O)CCN2C3=O)n1` (stereo not drawn) [Compound 101, 1-(2,6-dioxo-1,2,3,4,6,10b-hexahydropyrido[2,1-a]isoindol-10-yl)-3-(6-methyl-pyridin-2-yl)urea] returned a melting point of 226 to 228 °C.

The compound `Nc1ccn(C(=O)Nc2cccc3c2C2CCCCN2C3=O)n1` (stereo not drawn) [Compound 78, 3-Amino-N-(6-oxo-1,2,3,4,6,10b-hexahydropyrido[2,1-a]isoindol-10-yl)-1H-pyrazole-1-carboxamide] had a melting point of 166 °C.

Consider `O=C(Nc1ccccn1)Nc1cccc2c1C1CC3(CCN1C2=O)OCCO3` (stereo not drawn) [Compound 28, 1-(6′-Oxo-3′,4′,6′,10b′-tetrahydro-1′H-spiro[[1,3]dioxolane-2,2′-pyrido[2,1-a]isoindole]-10′-yl)-3-(pyridin-2-yl)urea], for which the IC50 worked out at 0.6 µM with HCT 116 (colon); 1 µM in the data set on MDA-MB 231 (breast); 4 µM with NCI (lung); 0.6 µM with Caco (colon); 3 µM with fibroblast; 11 µM on CDK5/D25. Moreover, the IC50 in the data set on Huh7 (liver) stood at 1 µM; in the data set with PC3 (prostate) it was 1.5 µM.

Consider `O=C(Nc1cccc2c1C1CCCCN1C2=O)NN1CCCCC1` (stereo not drawn) [Compound 85, N-(6-Oxo-1,2,3,4,6,10b-hexahydropyrido[2,1-a]isoindol-10-yl)-N′-(piperidin-1-yl)urea], for which the melting point worked out at 166 °C.

For the origin of these results see patent US20120095022A1, “DERIVATIVES OF 10-AMINO-1,2,3,4-TETRAHYDROPYRIDO[2,1-A]ISOINDOL-6(10BH)-ONES, METHOD FOR PREPARATION THEREOF AND THERAPEUTIC USES THEREOF” (UNIVERSITE D'ORLEANS, priority 2009, published 2012).
